Assay results from ChEMBL document CHEMBL1149966 (Bioorg Med Chem Lett, 1997).
Several values for one entry are separate records, joined by “and”; a condition that tells them apart may be missing. Equal values may be shown once.

How the values were obtained:
[1] = test system: Human immunodeficiency virus 1; experiment: The activity against HIV was determined from patient number 129; assay type: functional, organism-based
[2] = test system: Human immunodeficiency virus 1; experiment: The activity against HIV was determined from patient number 313; assay type: functional, organism-based
[3] = test system: Human immunodeficiency virus 1; experiment: The activity against mutant HIV molecular clone wt (pNL4-3) was determined; assay type: functional, organism-based
[4] = test system: Human immunodeficiency virus 1; experiment: The activity against HIV was determined from patient number 304; assay type: functional, organism-based
[5] = test system: Human immunodeficiency virus 1; experiment: The activity against HIV multiply mutated strain M36M/I,V82V/A was determined from patient number 304; assay type: functional, organism-based
MT4 [6] = experiment: Inhibitory potency towards recombinant HIV-1 3B in MT-4 cell using cytopathic effect as endpoint was evaluated in 0% human plasma; assay type: functional
[7] = test system: Human immunodeficiency virus 1; experiment: The activity against mutant HIV molecular clone V82A was determined; assay type: functional, organism-based
[8] = test system: Human immunodeficiency virus 1; experiment: The activity against HIV mutant strain V82F was determined from patient number 313; assay type: functional, organism-based
Rattus norvegicus [9] = experiment: Terminal phase half-life was evaluated in vivo in rat at a dose of 5 mg/kg by intra venous administration; assay type: ADME, organism-based; set-up: dose 5 mg/kg; settings: iv
[10] = test system: Human immunodeficiency virus 1; experiment: The activity against HIV was determined from patient number 302; assay type: functional, organism-based
[11] = test system: Human immunodeficiency virus 1; experiment: The activity against HIV was determined from patient number 337; assay type: functional, organism-based
[12] = test system: Human immunodeficiency virus 1; experiment: The activity against HIV mutant strain V82S was determined from patient number 337; assay type: functional, organism-based
[13] = test system: Human immunodeficiency virus 1; experiment: The activity against mutant HIV molecular clone V82T was determined; assay type: functional, organism-based
MT4 [14] = experiment: Inhibitory potency towards recombinant HIV-1 3B in MT-4 cell was evaluated in 0% human plasma; assay type: functional, cell-based
[15] = test system: Human immunodeficiency virus 1; experiment: The activity against HIV mutant strain V82A was determined from patient number 302; assay type: functional, organism-based
[16] = test system: Human immunodeficiency virus 1; experiment: The activity against mutant HIV molecular clone V82F was determined; assay type: functional, organism-based
MT4 [17] = experiment: Inhibitory potency towards recombinant HIV-1 3B in MT-4 cell was evaluated in 50% human plasma; assay type: functional, cell-based
Rattus norvegicus [18] = experiment: Maximum plasma concentration was evaluated in vivo in rat at a dose of 5 mg/kg by oral administration; assay type: ADME, organism-based; set-up: dose 5 mg/kg, route oral
Rattus norvegicus [19] = experiment: Oral bioavailability in rat (dose 5 mg/kg); assay type: ADME, organism-based; settings: in vivo
[20] = test system: Human immunodeficiency virus 1; experiment: The activity against multiply mutated strain M36I,I54V,A71V,V82T was determined from patient number 129; assay type: functional, organism-based

| Structure (SMILES) | EC50 [1] | EC50 [2] | EC50 [3] | EC50 [4] | EC50 [5] | CCIC50 (MT4 [6]) | EC50 [7] | EC50 [8] | T1/2 (Rattus norvegicus [9]) | EC50 [10] | EC50 [11] | EC50 [12] | EC50 [13] | EC50 (MT4 [14]) | EC50 [15] | EC50 [16] | EC50 (MT4 [17]) | Cmax (Rattus norvegicus [18]) | F (Rattus norvegicus [19]) | EC50 [20] |
| --- | --- | --- | --- | --- | --- | --- | --- | --- | --- | --- | --- | --- | --- | --- | --- | --- | --- | --- | --- | --- |
| CC(C)c1nc(CN(C)C(=O)N[C@@H](C(=O)N[C@@H](Cc2ccccc2)C[C@H](O)[C@H](Cc2ccccc2)NC(=O)OCc2cncs2)C(C)C)cs1 | 0.005 µM | 0.035 µM | 0.137 µM | 0.035 µM | 0.059 µM | 27 µM | 0.121 µM | 0.043 µM | 1.8 h and 1.41 h and 0.63 h | 0.046 µM | 0.019 µM | 0.022 µM | 0.352 µM | 0.12 µM | 0.043 µM | 0.276 µM | 0.88 µM | – | – | – |
| CC(C)c1nc(CN(C)C(=O)N[C@H](C(=O)N[C@@H](Cc2ccccc2)C[C@H](O)[C@H](Cc2ccccc2)NC(=O)OCc2cncs2)C(C)C)cs1 [RITONAVIR] | 0.005 µM | 0.035 µM | 0.055 µM | 0.019 µM | 0.054 µM | 35 µM | 0.23 µM | 0.123 µM | – | – | 0.035 µM | 0.143 µM | 0.316 µM | 0.09 µM | 0.032 µM | 0.308 µM | 1.07 µM | 1.36 µg/mL and 3.58 µg/mL | 70.7% and 37.4% and 29.9% | 0.065 µM |
